The target of assay [1] is T1, Voltage-gated N-type calcium channel alpha-1B subunit/Amyloid beta A4 precursor protein-binding family A member 1 (Homo sapiens, UniProt Q00975+Q02410). The format is protein assay.
The target of assay [2] is T1, Voltage-gated N-type calcium channel alpha-1B subunit/Amyloid beta A4 precursor protein-binding family A member 1. The format is protein assay. This is another data set of the same source.
In assay [3] the target is FAD-linked sulfhydryl oxidase ALR (Homo sapiens, UniProt P55789). Kind of assay: inhibitors of human ALR sulfhydryl oxidase, dose response, biochemical, H2O2 detection, luminescence, cherry-pick (AID 493248).
FAD-linked sulfhydryl oxidase ALR, sequence (P55789 whole entry): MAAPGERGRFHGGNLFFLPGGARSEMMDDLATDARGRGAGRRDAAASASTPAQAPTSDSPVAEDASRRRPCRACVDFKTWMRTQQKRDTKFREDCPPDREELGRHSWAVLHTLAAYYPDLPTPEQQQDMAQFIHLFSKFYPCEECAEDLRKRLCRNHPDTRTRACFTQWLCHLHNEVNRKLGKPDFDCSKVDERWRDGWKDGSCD
The target in assay [4] is T2, Polyadenylate-binding protein 1 (Homo sapiens, UniProt P11940). Nature of the assay: PABP1 MLLE–PAM2 binding inhibitor potency, dose response, biochemical, fluorescence polarization, FITC-PAM2 peptide (AID 602259). It counts as functional. The following applies: read-out: IC50_Mean.
T2 sequence (P11940 whole entry): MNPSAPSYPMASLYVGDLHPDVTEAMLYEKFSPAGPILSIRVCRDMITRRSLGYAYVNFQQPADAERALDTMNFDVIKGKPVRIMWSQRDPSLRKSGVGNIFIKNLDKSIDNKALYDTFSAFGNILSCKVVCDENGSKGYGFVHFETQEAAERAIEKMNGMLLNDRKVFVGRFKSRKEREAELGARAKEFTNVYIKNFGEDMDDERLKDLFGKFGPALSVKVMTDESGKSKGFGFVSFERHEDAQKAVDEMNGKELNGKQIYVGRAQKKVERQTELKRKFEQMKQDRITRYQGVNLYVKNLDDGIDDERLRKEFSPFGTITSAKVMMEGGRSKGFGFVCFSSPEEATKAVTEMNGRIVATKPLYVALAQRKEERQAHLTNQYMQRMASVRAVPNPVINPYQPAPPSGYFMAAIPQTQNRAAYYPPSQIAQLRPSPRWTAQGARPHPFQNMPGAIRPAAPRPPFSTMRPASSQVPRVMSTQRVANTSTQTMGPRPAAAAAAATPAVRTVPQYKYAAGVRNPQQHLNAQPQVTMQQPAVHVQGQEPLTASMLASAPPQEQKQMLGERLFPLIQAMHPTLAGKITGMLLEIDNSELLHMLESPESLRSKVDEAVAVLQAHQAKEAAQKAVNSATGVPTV
The target in assay [5] is Large T antigen (Simian virus 40, UniProt P03070). The format is functional, Betapolyomavirus macacae.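 Note: Confirmatory-stage PubChem screen for compounds that inhibit SV40 T antigen.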
Large T antigen, sequence (P03070 whole entry): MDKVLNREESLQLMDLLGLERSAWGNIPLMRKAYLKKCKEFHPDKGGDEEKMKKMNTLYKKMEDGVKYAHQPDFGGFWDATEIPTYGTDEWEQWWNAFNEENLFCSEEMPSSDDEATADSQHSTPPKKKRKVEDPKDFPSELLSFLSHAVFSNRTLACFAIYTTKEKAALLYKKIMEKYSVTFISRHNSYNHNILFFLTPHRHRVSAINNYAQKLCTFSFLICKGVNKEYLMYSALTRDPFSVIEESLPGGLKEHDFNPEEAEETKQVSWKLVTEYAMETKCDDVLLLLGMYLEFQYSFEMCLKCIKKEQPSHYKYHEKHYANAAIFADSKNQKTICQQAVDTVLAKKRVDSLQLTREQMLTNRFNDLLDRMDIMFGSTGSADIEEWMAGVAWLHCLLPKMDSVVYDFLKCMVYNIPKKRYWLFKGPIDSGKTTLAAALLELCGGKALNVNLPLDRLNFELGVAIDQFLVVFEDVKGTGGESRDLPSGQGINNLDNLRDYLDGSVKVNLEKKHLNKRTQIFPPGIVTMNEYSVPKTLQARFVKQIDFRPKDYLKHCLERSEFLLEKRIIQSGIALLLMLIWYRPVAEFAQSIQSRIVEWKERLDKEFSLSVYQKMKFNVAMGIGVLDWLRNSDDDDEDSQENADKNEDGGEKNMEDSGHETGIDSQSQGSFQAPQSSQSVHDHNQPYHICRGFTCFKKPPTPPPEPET
Assay [6] addresses T2, Polyadenylate-binding protein 1. Kind of assay: PABP1 MLLE–PAM2 interaction inhibitors, dose response, miRNA deadenylation inhibitor project, biochemical, fluorescence polarization, Cy5-PAM2 peptide, secondary (AID 602260). The format is functional. As to conditions: read-out: IC50_Mean. In general terms: In fluorescence polarisation assays a small probe gives low polarisation when free and higher when bound to something large.

Assay [7] has as its target T3, Aminopeptidase N (Plasmodium falciparum FcB1/Columbia, UniProt O96935).
T3 sequence (O96935 whole entry): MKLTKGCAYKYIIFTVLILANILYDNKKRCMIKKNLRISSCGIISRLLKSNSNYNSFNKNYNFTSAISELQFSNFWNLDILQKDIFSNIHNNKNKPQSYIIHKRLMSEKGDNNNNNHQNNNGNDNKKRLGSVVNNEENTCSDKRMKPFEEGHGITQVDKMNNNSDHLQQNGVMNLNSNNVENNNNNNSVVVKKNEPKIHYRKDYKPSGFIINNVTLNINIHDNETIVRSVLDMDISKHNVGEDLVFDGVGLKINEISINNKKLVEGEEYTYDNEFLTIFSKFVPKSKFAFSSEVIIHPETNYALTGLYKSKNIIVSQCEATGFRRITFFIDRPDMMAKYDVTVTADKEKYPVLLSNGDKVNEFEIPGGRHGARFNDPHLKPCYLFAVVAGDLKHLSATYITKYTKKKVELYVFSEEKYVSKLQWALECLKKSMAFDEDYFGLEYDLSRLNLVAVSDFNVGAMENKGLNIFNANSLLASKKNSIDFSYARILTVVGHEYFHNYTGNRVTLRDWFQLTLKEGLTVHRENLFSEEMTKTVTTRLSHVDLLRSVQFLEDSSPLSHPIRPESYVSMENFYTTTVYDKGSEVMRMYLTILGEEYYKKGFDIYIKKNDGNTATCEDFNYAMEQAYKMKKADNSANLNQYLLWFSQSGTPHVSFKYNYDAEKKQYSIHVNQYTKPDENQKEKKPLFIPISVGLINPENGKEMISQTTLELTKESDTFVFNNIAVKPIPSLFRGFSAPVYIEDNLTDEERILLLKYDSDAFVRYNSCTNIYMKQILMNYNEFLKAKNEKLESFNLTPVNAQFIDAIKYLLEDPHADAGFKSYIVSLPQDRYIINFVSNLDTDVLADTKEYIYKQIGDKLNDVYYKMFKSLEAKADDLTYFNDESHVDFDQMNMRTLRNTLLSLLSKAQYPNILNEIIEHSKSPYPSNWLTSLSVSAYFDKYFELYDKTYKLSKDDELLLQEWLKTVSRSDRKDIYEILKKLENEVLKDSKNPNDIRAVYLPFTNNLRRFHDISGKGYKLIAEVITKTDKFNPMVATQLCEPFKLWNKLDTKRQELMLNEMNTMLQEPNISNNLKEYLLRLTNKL
Nature of the assay: P. falciparum M1AAP inhibitors, biochemical, fluorogenic H-Leu-NHMec substrate, 1536-well (AID 1445). Also on record: species or system Plasmodium falciparum 3D7, 3D7.

Assay [8] addresses T4, Estrogen receptor (Homo sapiens, UniProt P03372).
T4 sequence (P03372 whole entry): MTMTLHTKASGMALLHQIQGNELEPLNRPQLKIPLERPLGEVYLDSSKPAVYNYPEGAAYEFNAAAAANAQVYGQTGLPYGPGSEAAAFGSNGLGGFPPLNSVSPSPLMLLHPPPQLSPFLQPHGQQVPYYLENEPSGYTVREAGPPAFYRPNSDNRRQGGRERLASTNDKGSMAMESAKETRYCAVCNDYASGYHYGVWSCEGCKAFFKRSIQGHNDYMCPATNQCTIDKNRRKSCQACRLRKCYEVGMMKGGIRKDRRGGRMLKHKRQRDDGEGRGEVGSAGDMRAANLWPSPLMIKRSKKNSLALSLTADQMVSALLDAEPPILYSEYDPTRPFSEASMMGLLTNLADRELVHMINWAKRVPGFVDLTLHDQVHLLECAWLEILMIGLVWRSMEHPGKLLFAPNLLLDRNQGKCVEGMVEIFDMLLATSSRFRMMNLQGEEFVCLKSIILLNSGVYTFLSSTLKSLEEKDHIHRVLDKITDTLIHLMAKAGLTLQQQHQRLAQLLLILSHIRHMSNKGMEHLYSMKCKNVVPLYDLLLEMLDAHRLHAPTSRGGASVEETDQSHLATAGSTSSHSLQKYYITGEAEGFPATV

The nature of assay [9]: cytotoxicity in HEK-293T cells, dose response, cytotoxicity control for BCR NF-kB inhibitor project, luminescence, B-cell screen hits (AID 489021).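 Note: HEK-293T cells carrying an NF-kB luciferase reporter; cells exposed to compound for about 14 hours before viability readout.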 The format is functional, cell-based.
The nature of assay [10]: THP-1 cell cytotoxicity, dose response, cytotoxicity control for Vif-APOBEC3G degradation inhibitor project, THP-1 cells (AID 1117359). It counts as functional. As to conditions: Human immunodeficiency virus 1, THP-1.
Assay [11] is described as follows: cytotoxicity in HPDE-C7 cells, cell-based, fluorescence, HTS (AID 430). It counts as functional. As to conditions: Homo sapiens.
Assay [12] can be described thus: cytotoxicity in KRAS-transformed pancreatic duct cells, primary screen, cell-based, fluorescence, HTS (AID 431).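 Note: cell line used: HPDE-C7K.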 The format is functional. As to conditions: Homo sapiens.
Assay [13] is described as follows: NIH-3T3 fibroblast cytotoxicity, dose response, cytotoxicity control, cell-based, fluorescence, Alamar Blue, secondary assay (AID 2327).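 Note: NIH-3T3 mouse fibroblasts cultured with fluconazole at 8 µg/mL.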 The format is functional.
In assay [14] the target is T5, Protein RecA (Mycobacterium tuberculosis, UniProt P9WHJ3).
T5 sequence (P9WHJ3 whole entry): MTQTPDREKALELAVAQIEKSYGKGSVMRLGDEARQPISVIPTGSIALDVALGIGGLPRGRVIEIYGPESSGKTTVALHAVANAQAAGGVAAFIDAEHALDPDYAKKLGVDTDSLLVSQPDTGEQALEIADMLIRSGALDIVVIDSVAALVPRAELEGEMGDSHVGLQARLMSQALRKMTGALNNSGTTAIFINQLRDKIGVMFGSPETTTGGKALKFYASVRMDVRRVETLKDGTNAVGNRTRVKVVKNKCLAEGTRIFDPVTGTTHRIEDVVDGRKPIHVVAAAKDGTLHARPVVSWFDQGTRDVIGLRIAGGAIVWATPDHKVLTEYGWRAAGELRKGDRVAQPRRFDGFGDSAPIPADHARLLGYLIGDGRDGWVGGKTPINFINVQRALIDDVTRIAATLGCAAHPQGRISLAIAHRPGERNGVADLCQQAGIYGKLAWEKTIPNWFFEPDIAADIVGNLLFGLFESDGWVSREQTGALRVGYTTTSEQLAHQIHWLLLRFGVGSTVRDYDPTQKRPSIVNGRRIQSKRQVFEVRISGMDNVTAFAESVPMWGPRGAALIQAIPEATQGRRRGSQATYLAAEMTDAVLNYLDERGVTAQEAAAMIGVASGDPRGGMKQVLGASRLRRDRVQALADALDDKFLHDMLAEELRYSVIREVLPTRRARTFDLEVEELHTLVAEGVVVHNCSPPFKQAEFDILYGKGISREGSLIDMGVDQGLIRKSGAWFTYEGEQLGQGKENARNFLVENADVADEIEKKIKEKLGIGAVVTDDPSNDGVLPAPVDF
Kind of assay: Fluorescence Cell-Free Homogeneous Dose Retest to Identify Inhibitors of RecA-Intein Splicing Activity. [Related pubchem assays (depositor defined):AID2097, AID2223, AID489010, AID492950]. It counts as functional.

Assay [15] addresses T6, Replicative DNA helicase DnaB (Mycobacterium tuberculosis, UniProt P9WMR3).
T6 sequence (P9WMR3 whole entry): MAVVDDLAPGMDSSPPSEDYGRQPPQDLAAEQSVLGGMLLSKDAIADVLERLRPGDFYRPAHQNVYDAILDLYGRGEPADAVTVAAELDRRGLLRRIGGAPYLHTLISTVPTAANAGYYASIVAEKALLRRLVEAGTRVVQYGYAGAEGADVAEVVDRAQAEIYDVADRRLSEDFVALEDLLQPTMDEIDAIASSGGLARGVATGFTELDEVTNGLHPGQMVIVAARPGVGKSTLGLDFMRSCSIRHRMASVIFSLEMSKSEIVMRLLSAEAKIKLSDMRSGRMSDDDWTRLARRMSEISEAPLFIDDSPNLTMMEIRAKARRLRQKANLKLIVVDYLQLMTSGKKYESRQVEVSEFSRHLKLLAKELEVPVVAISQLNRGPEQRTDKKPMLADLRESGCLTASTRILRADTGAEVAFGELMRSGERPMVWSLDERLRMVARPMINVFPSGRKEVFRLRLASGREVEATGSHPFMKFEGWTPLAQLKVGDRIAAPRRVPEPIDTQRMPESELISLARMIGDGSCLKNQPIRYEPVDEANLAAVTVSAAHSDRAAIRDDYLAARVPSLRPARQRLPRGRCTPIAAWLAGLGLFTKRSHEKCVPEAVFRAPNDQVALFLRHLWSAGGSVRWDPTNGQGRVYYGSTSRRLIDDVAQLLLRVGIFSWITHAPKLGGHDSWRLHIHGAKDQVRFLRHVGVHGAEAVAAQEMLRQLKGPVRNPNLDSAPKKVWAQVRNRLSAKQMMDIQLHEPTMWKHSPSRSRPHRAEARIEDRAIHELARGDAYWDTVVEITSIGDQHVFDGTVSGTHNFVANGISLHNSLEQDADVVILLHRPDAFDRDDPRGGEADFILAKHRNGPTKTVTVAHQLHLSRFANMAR
Nature of the assay: DnaB intein splicing inhibitors, dose response, biochemical, cell-free fluorescence (AID 449749). The format is functional.

In assay [16] the target is Induced myeloid leukemia cell differentiation protein Mcl-1 (Homo sapiens, UniProt Q07820). It counts as functional.
Induced myeloid leukemia cell differentiation protein Mcl-1, sequence (Q07820 whole entry): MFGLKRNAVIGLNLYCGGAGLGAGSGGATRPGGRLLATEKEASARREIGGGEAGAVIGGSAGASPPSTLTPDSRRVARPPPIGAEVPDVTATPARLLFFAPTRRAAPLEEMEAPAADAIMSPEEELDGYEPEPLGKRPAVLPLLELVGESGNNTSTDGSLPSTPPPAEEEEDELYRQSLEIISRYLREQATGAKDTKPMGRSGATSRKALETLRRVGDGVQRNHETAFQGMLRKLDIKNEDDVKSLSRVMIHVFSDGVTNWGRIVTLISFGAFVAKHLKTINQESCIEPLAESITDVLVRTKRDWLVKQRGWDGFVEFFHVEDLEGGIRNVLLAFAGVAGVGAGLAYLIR

Activity calls are given as the source filed them. Where a SMILES comes first, the peptide text is derived from it. The star is where a group is joined. Boc = CC(C)(C)OC(=O)*; Bn = c1ccc(C*)cc1; NHNH2 = NN* A value given as a limit tells only on which side of the number the result lay.

T1 sequence (Q00975 whole entry): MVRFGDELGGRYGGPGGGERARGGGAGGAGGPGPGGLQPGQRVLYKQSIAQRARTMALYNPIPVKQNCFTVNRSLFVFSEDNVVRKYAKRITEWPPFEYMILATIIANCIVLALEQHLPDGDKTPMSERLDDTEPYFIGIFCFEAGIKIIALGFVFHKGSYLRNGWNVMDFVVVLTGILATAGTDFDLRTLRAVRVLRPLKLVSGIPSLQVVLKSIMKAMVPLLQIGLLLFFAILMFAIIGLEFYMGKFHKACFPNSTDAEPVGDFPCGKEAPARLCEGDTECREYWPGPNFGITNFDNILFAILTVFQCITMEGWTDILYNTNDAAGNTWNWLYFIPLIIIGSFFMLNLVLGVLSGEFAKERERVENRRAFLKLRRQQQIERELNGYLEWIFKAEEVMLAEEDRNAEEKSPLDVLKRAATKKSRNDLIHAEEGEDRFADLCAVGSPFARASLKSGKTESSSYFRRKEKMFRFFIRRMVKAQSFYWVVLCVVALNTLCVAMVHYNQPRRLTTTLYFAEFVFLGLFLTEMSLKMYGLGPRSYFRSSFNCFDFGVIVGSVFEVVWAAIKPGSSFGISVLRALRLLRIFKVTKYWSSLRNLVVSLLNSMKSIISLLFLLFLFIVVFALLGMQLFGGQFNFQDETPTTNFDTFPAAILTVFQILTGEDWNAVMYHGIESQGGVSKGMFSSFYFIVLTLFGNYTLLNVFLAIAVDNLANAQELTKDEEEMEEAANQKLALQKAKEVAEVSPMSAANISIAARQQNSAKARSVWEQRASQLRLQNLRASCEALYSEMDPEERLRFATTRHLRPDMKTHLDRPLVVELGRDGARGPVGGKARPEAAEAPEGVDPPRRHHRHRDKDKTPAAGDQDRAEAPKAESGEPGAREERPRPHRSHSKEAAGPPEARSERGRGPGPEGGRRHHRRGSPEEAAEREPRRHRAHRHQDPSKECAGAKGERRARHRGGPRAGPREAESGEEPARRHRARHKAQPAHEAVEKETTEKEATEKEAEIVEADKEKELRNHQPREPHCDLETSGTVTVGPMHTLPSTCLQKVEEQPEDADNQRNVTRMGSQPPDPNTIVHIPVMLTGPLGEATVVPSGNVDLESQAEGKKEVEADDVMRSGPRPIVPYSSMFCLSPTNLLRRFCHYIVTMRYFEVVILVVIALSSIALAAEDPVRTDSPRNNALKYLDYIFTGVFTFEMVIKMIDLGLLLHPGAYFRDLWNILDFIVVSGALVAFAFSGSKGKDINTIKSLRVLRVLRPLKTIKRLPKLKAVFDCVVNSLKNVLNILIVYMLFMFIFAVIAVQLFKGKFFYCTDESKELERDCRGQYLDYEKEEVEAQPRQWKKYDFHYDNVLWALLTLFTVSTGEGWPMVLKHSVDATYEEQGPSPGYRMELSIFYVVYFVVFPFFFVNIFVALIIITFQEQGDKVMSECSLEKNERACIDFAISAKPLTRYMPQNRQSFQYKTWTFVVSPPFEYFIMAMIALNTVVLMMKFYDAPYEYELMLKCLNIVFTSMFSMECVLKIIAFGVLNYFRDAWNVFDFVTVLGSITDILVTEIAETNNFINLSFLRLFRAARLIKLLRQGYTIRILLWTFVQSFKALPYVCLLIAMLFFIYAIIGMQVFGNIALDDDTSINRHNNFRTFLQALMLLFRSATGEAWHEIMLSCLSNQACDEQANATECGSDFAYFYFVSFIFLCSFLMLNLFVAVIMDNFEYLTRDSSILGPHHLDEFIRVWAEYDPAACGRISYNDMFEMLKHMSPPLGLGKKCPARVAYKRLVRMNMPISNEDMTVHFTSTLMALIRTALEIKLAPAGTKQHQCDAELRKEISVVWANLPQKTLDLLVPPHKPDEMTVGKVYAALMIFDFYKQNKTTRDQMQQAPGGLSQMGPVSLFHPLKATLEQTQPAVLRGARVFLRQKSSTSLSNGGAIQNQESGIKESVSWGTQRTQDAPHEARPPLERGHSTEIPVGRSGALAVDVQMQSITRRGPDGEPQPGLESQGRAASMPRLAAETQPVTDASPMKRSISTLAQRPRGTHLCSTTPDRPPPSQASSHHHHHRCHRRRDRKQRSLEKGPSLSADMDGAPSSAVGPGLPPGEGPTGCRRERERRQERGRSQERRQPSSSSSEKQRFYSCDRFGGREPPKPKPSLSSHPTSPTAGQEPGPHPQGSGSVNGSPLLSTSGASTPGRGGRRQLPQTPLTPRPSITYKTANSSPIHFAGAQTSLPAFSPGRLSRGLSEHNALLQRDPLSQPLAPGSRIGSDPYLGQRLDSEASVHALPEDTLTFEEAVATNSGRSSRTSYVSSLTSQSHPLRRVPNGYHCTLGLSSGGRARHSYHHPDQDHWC
T1 sequence (Q02410 whole entry): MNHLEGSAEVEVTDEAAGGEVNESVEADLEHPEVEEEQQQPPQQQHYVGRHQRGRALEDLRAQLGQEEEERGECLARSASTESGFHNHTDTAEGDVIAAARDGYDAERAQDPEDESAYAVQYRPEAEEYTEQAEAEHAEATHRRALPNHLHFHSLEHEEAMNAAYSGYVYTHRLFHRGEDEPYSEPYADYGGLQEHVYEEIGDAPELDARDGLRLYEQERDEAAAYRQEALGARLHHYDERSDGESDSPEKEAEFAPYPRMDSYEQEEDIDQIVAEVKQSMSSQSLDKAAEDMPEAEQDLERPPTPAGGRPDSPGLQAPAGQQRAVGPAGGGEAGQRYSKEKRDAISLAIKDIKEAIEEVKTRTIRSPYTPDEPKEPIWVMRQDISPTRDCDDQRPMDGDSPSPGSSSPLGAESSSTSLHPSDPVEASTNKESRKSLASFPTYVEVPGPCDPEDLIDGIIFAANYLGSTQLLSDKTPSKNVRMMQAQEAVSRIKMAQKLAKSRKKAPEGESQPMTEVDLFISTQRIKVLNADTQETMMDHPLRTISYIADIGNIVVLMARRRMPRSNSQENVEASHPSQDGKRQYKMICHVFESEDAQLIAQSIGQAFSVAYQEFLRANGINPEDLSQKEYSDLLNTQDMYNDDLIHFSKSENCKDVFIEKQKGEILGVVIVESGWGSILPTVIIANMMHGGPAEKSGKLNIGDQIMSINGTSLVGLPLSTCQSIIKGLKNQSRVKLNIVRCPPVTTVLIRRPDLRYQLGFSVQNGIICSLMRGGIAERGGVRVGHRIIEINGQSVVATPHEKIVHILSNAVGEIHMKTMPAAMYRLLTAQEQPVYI

Turning to `N#CC1=C(N)N=C(S)C(C(N)=O)C1c1ccccc1F` (configuration not stated), the IC50 was 13.6 µM (active) in assay [1]; > 50 µM (inactive) in [2]; > 66 µM (inactive) in [4]; 60 µM (active) in assay [5]; > 66 µM (inactive) in [6]. For the same compound, the AC50 in assay [3] was 8.62 µM (active).

For the compound `Cc1ccc2nc(O)c(C3=NN(C(=O)CCC(=O)O)C(c4cccs4)C3)c(-c3ccccc3)c2c1` (configuration not stated), the IC50 in assay [7] was 68.9 µM (active).

With `CCOC(=O)CSc1nn(C)c(=S)s1`, in assay [8], the IC50 is 7.98 µM (active).

Regarding `COc1ccc(/C=C2/SC(=S)N(CCC(=O)O)C2=O)cc1`, the IC50 in assay [9] is > 80 µM (inactive).

With `CCOc1cccc(CN2CCCC(C(=O)Nc3cccc(-n4cccn4)c3)C2)c1` (configuration not stated), the CC50 in [10] was > 40 µM (active).

With `CC(C)CC(NC(=O)C(COCc1ccccc1)NC(=O)OC(C)(C)C)C(=O)NN` (configuration not stated) (Boc-Ser(Bn)-Leu-NHNH2; configuration not given here), the IC50 in assay [7] was 81.4 µM (active).

Consider `c1ccc2c(c1)NCC1CCCN21` (configuration not stated), for which, in assay [10], the CC50 is > 40 µM (active).

As to `CCOc1ccc(Nc2oc(-c3ccccc3Cl)nc2C#N)cc1`, in assay [8], the IC50 was 9.54 µM (active).

`COc1ccc(C(=O)Oc2c(CN3CCOCC3)cc(Cl)c3cccnc23)cc1`: in assay [10], the CC50 was 5.39 µM (active). Also, the EC50 was 5.17 µM (active) in assay [11], 13.4 µM (active) in assay [12] and > 160 µM (inactive) in [13].

For the compound `N#Cc1c(C#N)c(O)c2ccccc2c1O`, the EC50 in assay [14] was 1.55 µM (active). In addition, the IC50 in assay [1] is 3.83 µM (active); in assay [2] it was 25.8 µM (active). Also, in assay [15], the AC50 was > 380 µM (inactive).

As for `O=[N+]([O-])c1ccc(-c2cc(-c3ccc(Cl)cc3)n[nH]2)cc1`, the IC50 is 2.5 µM (active) in assay [16], > 56.8 µM (not active) in assay [1] and > 50 µM (inactive) in assay [2].

As to `N#CC1=C2SCC(O)(c3ccccc3)N2C(=O)CC1c1cccs1` (configuration not stated), the figures for the half-maximal effective concentration (EC50) in assay [11] and in assay [12] were 1.44 µM (active) and 1.53 µM (active), respectively.

With `COc1ccc(C2NC3=C(CCCC3)C(C#N)(C#N)C2(C#N)C#N)cc1` (configuration not stated), the EC50 in assay [11] and in assay [12] was > 20 µM (not active) in each case.

Take `COc1ccc(/C=N/NC(=O)c2cccc(NC(=O)c3ccccc3Cl)c2)cc1OC`: the IC50 in [7] was 53.9 µM (active).

Turning to `COc1ccc(C(=O)C2CCCN(C(=O)c3cnsn3)C2)c(C)c1` (configuration not stated), the CC50 in assay [10] was > 40 µM (active).

Consider `COc1ccc(/C=C(\CC(=O)O)c2nc3ccccc3o2)cc1`, for which the IC50 in assay [7] was 81.5 µM (active).

As to `CCCSc1nc(C)c(-c2csc(C(C#N)=C3CCCC3)n2)cc1C#N`, the IC50 in assay [8] is 9.34 µM (active).

As usually defined, the AC50 is the midpoint of the concentration-response curve, whichever way the signal moves. For orientation: CC50 means the concentration at which the toxic effect on the cells reaches its halfway point. What is called EC50 is the concentration that produces a half-maximal response.

Source of the values: ChEMBL document CHEMBL1201862, “PubChem BioAssay data set” (2004).
